# US20150004106A1, “ACNE treatment method” (priority 2013, published 2015)
# How the values were obtained:
# acne = assay: case study of topical beta-sitosterol treatment of acne; type: in vivo; settings: for reduction in acne: end of study, after four weeks of application; for mean reduction in acne: first week
# Source text: This vehicle containing the beta-sitosterol is applied to the sites of the subcutaneous gland disorders on a twice daily basis (morning and evening).
# FIG. 4 is a table indicating the results found in a case study.
# The study used a cross section of the population having a distribution of sexes, ages, and areas being affected.
# At the end of the study, after four weeks of application, the women found a fifty percent reduction with the men showing a forty-five percent reduction.
# [1] = alcohols; cited from earlier work
compound,measurement,setting,value
"CCC(CCC(C)C1CCC2C3CC=C4CC(O)CCC4(C)C3CCC12C)C(C)C (stereo not drawn) [beta-sitosterol, 17-(5-Ethyl-6-methylheptan-2-yl)-10-13-dimethyl-2,3,4,7,8,9,11,12,14,16,17-deodeccahydrom-1H-cyclopental(alpha)phenanthren-3-ol]",change of acne in the affected areas,"acne; all cases, start of use",immediate reduction in the acne
same,change of acne with continuous use,"acne; all of the subjects, continuous use",further reductions in acne
same,reduction in acne,acne; men,forty-five
same,mean reduction in acne,acne; men,10%
same,reduction in acne,acne; women,fifty
same,mean reduction in acne,acne; women,10%
same,solubility,[1],hydrophobic and soluble in alcohols
